Our source for the Papp values is PubChem BioAssay AID1645871.

For orientation: Papp means a coefficient for how fast a substance crosses the barrier. A high value points to fast passage.

For the series the following is noted: pampa; pH 5.0; 30.0 min; 50.0 µM.
In the case of `Cc1cc(C)nc(NS(=O)(=O)c2ccc(NC(=S)NC(=O)COc3ccc(Br)cc3Cl)cc2)n1`, the apparent permeability coefficient (Papp) was over 1000 ×10⁻⁶ cm/s.
`C[C@H]1CCC[C@H](O)CCC/C=C/c2cc(O)cc(O)c2C(=O)O1` gave a Papp of 795 ×10⁻⁶ cm/s.
For `CCOc1ccc(C2c3c(oc4ccc(C)cc4c3=O)C(=O)N2CCCN(C)C)cc1` (stereo unspecified) the value was 29.6 ×10⁻⁶ cm/s; for `O=C(c1cc2ccccc2[nH]1)N1CCc2c(n(Cc3cccnc3)n(CCc3ccccc3)c2=O)C1`, 229 ×10⁻⁶ cm/s.
For `NCC(=O)Nc1cncc(-c2nn3c(=O)cc(N4CCNCC4)nc3s2)c1` the value was 1.07 ×10⁻⁶ cm/s.
In the case of `O=C(Nc1cccc(OC(F)(F)F)c1)c1cc(-c2ccc[nH]2)n[nH]1`, the Papp was 103 ×10⁻⁶ cm/s.
As to `Cc1onc(-c2ccc(F)cc2)c1COc1ccc(C(=O)N2CCS(=O)(=O)CC2)cn1`, the Papp was 291 ×10⁻⁶ cm/s.
As for `CCN(CC)C(=O)N1c2ccccc2C=Cc2ccccc21`, the figure is over 1000 ×10⁻⁶ cm/s; as for `O=C(NCCCO)c1ccc(-c2ncc3cnc(-c4cccc(F)c4)cn23)cc1`, 21.2 ×10⁻⁶ cm/s; as for `COc1ccccc1C(=O)Nc1nnc(SCc2cc(=O)c3ccccc3[nH]2)s1`, 402 ×10⁻⁶ cm/s.
As for `COc1ccc(NC(=O)CCCc2nnc3n(CCC(C)C)c(=O)c4sccc4n23)cc1Cl`, the figure is over 1000 ×10⁻⁶ cm/s; as for `Cn1cc2c3c(cccc31)CN(C(=O)c1ccc(F)c(Cl)c1)CC2`, 824 ×10⁻⁶ cm/s; as for `COC(=O)C1=C(C)NC(C)=C(C(=O)O[C@@H]2CCCN(Cc3ccccc3)C2)[C@@H]1c1cccc([N+](=O)[O-])c1`, over 1000 ×10⁻⁶ cm/s.
In the case of `Cc1ccccc1S(=O)(=O)N1CCCC(CCC(=O)NCCN(C)C2CCCCC2)C1` (stereo unspecified), the Papp was found to be 32.8 ×10⁻⁶ cm/s.
Regarding `CS(=O)(=O)c1ccc(-c2cnc(NCc3ccco3)n3cnnc23)cc1`, the apparent permeability coefficient (Papp) amounted to 13.6 ×10⁻⁶ cm/s.
`Cc1ccccc1C(=O)Nc1ccc2c(c1)CCCN2C(=O)c1cccs1` displayed a Papp of 561 ×10⁻⁶ cm/s.
For `COc1cc(C(=O)NC2CCCc3c2[nH]c2c(Cl)cccc32)cc(OC)c1OC` (stereo unspecified) the value was 384 ×10⁻⁶ cm/s.
`CC(C)c1ccccc1-c1nc2c(c(NCc3ccc(-c4cccnc4)cc3)n1)CNC2`: the Papp was 98.7 ×10⁻⁶ cm/s.
As for `COc1ccc2[nH]c(C[C@@H]3C[C@@H](C(C)C)[C@H](CNCc4ccccc4O)C=C3C)nc2n1`, the figure is 739 ×10⁻⁶ cm/s.
With `Cc1ccc(S(=O)(=O)Nc2nc3ccc(C)cc3nc2Nc2ccc3c(c2)OCO3)cc1`, the apparent permeability coefficient (Papp) worked out at 334 ×10⁻⁶ cm/s.
`COc1ncc(-c2ccc3c(Nc4cc(Oc5cc(F)cc(F)c5)cc(C(=O)O)c4)c(S(=O)(=O)NC4CC4)cnc3c2)c(OC)n1` had a Papp of 1.2 ×10⁻⁶ cm/s.
For `CC(C)c1ccccc1-c1nc(NCc2ccc(-c3cccnc3)cc2)c2ccccc2n1` the value was over 1000 ×10⁻⁶ cm/s.
As for `Fc1ccc(CN2CCNc3cc(Nc4ccccc4)ncc3C2)cc1F`, the figure is 340 ×10⁻⁶ cm/s; as for `c1ccc(CNc2cc3c(cn2)CN(Cc2cccnc2)CCN3)cc1`, 15.8 ×10⁻⁶ cm/s.
For `CCc1ccc(-n2nc(C)c3c2NC(=O)CSC3c2ccccc2C)cc1` (stereo unspecified) the value was 707 ×10⁻⁶ cm/s.
`CCc1ccccc1Nc1ncnc2c1cnn2-c1ccc(Cl)cc1` came in with a Papp of 100 ×10⁻⁶ cm/s.
The compound `CCOC(=O)c1cnc2ccc(-c3cncc(NS(=O)(=O)c4ccccc4)c3)cn12` showed a Papp of 546 ×10⁻⁶ cm/s.
As for `c1cc(-c2cc(-c3ccncc3)c3cncn3c2)c2[nH]ncc2c1`, the figure is 20.3 ×10⁻⁶ cm/s; as for `Cc1c(-c2cccc(NC(=O)c3ccc(F)c(F)c3)c2)nc2ncccn12`, 710 ×10⁻⁶ cm/s; as for `Cc1ccc2nc(-c3cc(NC(=O)c4ccc5c(c4)OCCO5)ccc3Cl)oc2c1`, 28.6 ×10⁻⁶ cm/s.
On to `COc1ccccc1-c1nnc2sc(-c3ccc(N(C)C)cc3)nn12`, for which the apparent permeability (Papp) was over 1000 ×10⁻⁶ cm/s.
On to `Nc1c(-c2ccncc2)cc[nH]c1=O`, for which the Papp stood at 2.72 ×10⁻⁶ cm/s.
Compound `COc1ccc(C)cc1NS(=O)(=O)c1ccc(-c2cnc(C3CC3)o2)cc1` had a Papp of 883 ×10⁻⁶ cm/s.
For `Cc1cc(Br)ccc1NC(=O)C(NS(=O)(=O)c1cccs1)c1ccccc1` (stereo unspecified) the value was 79.4 ×10⁻⁶ cm/s; for `CCOc1ccc(-c2cn3c(n2)sc2cc(C(=O)NCCCN(CC)CC)ccc23)cc1`, 114 ×10⁻⁶ cm/s; for `Cc1ccc(-c2nc(C)c(C(=O)Nc3ccc4c(c3)C(=O)N3CCC[C@H]3C(=O)N4)s2)cc1`, 48.2 ×10⁻⁶ cm/s.
For `CCC(CC)c1cc([C@H]2CN3CC[C@H]2C[C@@H]3CNS(=O)(=O)c2cccs2)nc(-c2ccncc2)n1` the value was 750 ×10⁻⁶ cm/s; for `COC(=O)Nc1nc2ccc(C(=O)c3ccccc3)cc2[nH]1`, 455 ×10⁻⁶ cm/s; for `COC[C@@H]1CN(C(=O)c2nn(C)c3ccccc23)C[C@H]1c1nc(C)no1`, 65.3 ×10⁻⁶ cm/s.
As for `CC(C)c1nc(CN(C)C(=O)N[C@H](C(=O)N[C@@H](Cc2ccccc2)C[C@H](O)[C@H](Cc2ccccc2)NC(=O)OCc2cncs2)C(C)C)cs1`, the apparent permeability coefficient (Papp) was found to be 844 ×10⁻⁶ cm/s.
As to `CCOc1ccc(CNC(=O)CCCn2nc(C)c3c(C)n(-c4ccc(C)cc4)nc3c2=O)cc1`, the Papp was determined as 582 ×10⁻⁶ cm/s.
As for `CCN(c1ccccc1)S(=O)(=O)c1c(C)nc2scc(C)n2c1=O`, the figure is 479 ×10⁻⁶ cm/s; as for `Cc1ccc(C)c(CN2CCC(CNC(=O)Nc3ccc(Br)cc3F)CC2)c1`, 979 ×10⁻⁶ cm/s.
`Cc1cccc(S(=O)(=O)c2cn(Cc3ccccc3)c3cc(N4CCCCC4C)c(F)cc3c2=O)c1` (stereo unspecified) yielded a Papp of 485 ×10⁻⁶ cm/s.
As for `O=C(O)c1ccc(-c2c[nH]c3ncc(-c4ccccc4)cc23)cc1C1CCCC1`, the figure is 400 ×10⁻⁶ cm/s; as for `CCOc1ccc(CCNC(=O)c2cccc(C(=O)c3ccccc3)c2)cc1OCC`, over 1000 ×10⁻⁶ cm/s; as for `Cc1ccc(Nc2nc(C)c(NC(=O)c3ccc(C)cc3)c(Nc3ccc(C)cc3)n2)cc1`, 6.76 ×10⁻⁶ cm/s.
For `CN1CCC(N(Cc2cccs2)c2ccccc2)CC1`, the Papp came to 254 ×10⁻⁶ cm/s.
For `COc1cc([C@@H]2c3cc4c(cc3[C@H](O)[C@H]3COC(=O)[C@H]23)OCO4)cc(OC)c1OC` the value was 262 ×10⁻⁶ cm/s.
As for `CN1CCN(C(=O)Cc2c[nH]c3ncc(-c4ccccc4Oc4ccccc4)cc23)CC1`, the figure is 578 ×10⁻⁶ cm/s; as for `COc1ccc(OC)c(CNc2ncnc3onc(C)c23)c1`, 250 ×10⁻⁶ cm/s.
`NC(=O)c1ccc(-c2ncc3cnc(-c4cccc(F)c4)cn23)cc1` came in with a Papp of 135 ×10⁻⁶ cm/s.
On to `CCc1cccc(NC(=O)c2cc(-c3ccc[nH]3)n[nH]2)c1`, for which the Papp came to 90.2 ×10⁻⁶ cm/s.
Compound `COc1cc(NC(=O)c2cc(-c3ccccc3O)no2)cc(OC)c1OC` displayed a Papp of over 1000 ×10⁻⁶ cm/s.
Take `Nc1ncc(S(=O)(=O)N2CCN(c3ccccc3)CC2)cn1`: the Papp was determined as 6.73 ×10⁻⁶ cm/s.
Turning to `Cn1cnc(-c2nccc3c(=O)[nH]c(OCCCC(F)(F)F)nc23)c1`, the apparent permeability coefficient (Papp) came to 78.7 ×10⁻⁶ cm/s.
For `Oc1ccc(-c2nc(C3CC3)nc3c2CCN(Cc2ccc(F)cc2)CC3)cc1` the value was 421 ×10⁻⁶ cm/s.
As for `CCCCCn1c(CCCNC(=O)c2ccccc2OC)nc2ccccc21`, the figure is 491 ×10⁻⁶ cm/s.
The compound `COC(=O)c1ccc(NS(=O)(=O)c2c(C)nc3sccn3c2=O)cc1` yielded a Papp of 413 ×10⁻⁶ cm/s.
As for `CC(C)(C)c1ccc(C(=O)Nc2ccc3c(c2)CCCN3C(=O)c2cccs2)cc1`, the figure is 884 ×10⁻⁶ cm/s; as for `Cc1c(C(=O)NN2CCCCC2)nn(-c2ccc(Cl)cc2Cl)c1-c1ccc(Cl)cc1`, over 1000 ×10⁻⁶ cm/s.
As for `Fc1ccc(N2CCCN(CC3[C@H]4CNC[C@@H]34)CC2)cc1` (stereo partly specified), the figure is 48.8 ×10⁻⁶ cm/s.
As for `CCn1ncc(NC(=O)Cn2ncc3cc(-c4cccc(OC)c4)ccc32)n1`, the figure is 853 ×10⁻⁶ cm/s; as for `COc1ccc(-c2ccc3ncc(Nc4cccnc4OC)n3n2)cn1`, 758 ×10⁻⁶ cm/s; as for `COCC(C)NCc1cc2ccc(OC)cc2nc1N1CCN(c2ccc(F)cc2)CC1` (stereo unspecified), 576 ×10⁻⁶ cm/s.
Compound `CN(C)CCCn1cc(C2=C(c3c[nH]c4ccccc34)C(=O)NC2=O)c2ccccc21` returned an apparent permeability (Papp) of 39.3 ×10⁻⁶ cm/s.
Turning to `COc1ccccc1Nc1ccnc(N2CCN(C(=O)c3ccc(F)cc3)CC2)n1`, the Papp is 853 ×10⁻⁶ cm/s.
Compound `CC(C)c1ccc(CC(=O)N2CCCc3ncc(C(=O)Nc4cccnc4)cc32)cc1` had a Papp of 932 ×10⁻⁶ cm/s.
For `CCCCOc1ccc(CNC(=O)c2cc3n(n2)CCCN(Cc2ccc(C)cc2)C3=O)cc1` the value was 867 ×10⁻⁶ cm/s; for `CCC(CC)C(=O)NC[C@@H]1C=C(C)[C@H](Cc2nc3c(C)cccc3[nH]2)C[C@H]1C(C)C`, over 1000 ×10⁻⁶ cm/s.
For `CN1CCCN(C(c2ccccc2)c2ccc(Cl)cc2)CC1` (stereo unspecified) the value was over 1000 ×10⁻⁶ cm/s; for `Cc1ccc(C(=O)N2CCc3sc(C(=O)NC(C)c4ccccc4)cc3C2)cc1` (stereo unspecified), 425 ×10⁻⁶ cm/s.
`CSc1ccccc1N1CCN(CCCCCC(=O)NC2CCCc3ccccc32)CC1` (stereo unspecified): the Papp was 628 ×10⁻⁶ cm/s.
As for `COc1cccc(N2CCN(c3ncc4c(n3)CCN(Cc3ccc(Br)cc3)C4)CC2)c1`, the figure is 939 ×10⁻⁶ cm/s; as for `COc1ccc(OC)c(Nc2c3c(nc4ccccc24)CCC3)c1`, 129 ×10⁻⁶ cm/s; as for `COc1ccc(CNC(=O)CCCn2nc(C)c3c(C)n(-c4ccc(C)cc4)nc3c2=O)cc1OC`, 159 ×10⁻⁶ cm/s.
For `O=C(Nc1ccccc1F)c1nc(S(=O)(=O)Cc2ccccc2F)ncc1Cl`, the apparent permeability (Papp) came out at 505 ×10⁻⁶ cm/s.
As for `CCCCn1cc2c(c1-c1ccc(Br)cc1)c(=O)n(C)c(=O)n2C`, the figure is over 1000 ×10⁻⁶ cm/s; as for `CC(C)(C)c1ccc(S(=O)(=O)N2CCC(c3ccncc3)CC2)cc1`, 754 ×10⁻⁶ cm/s.
Compound `CN1Cc2c(cc(N3CCOCC3)nc2-c2ccccc2OC(F)(F)F)C1=O` had a Papp of over 1000 ×10⁻⁶ cm/s.
As for `COc1ccc(-n2nc(C)c([C@@H]3C=C[C@@H](NCc4ccc(N(C)C)cc4)C3)c2C)cc1`, the figure is over 1000 ×10⁻⁶ cm/s.
As for `CCCNC(=O)c1ccc2c(c1)N=C(C)c1c(C)ccc(C)c1S2`, the figure is over 1000 ×10⁻⁶ cm/s; as for `Cc1noc(C)c1-c1cc(-c2ccc3c(c2)C(=O)NC3)cn2cncc12`, 64.5 ×10⁻⁶ cm/s; as for `CCOC(=O)C1=C(CN(CC)Cc2ccccc2)NC(=O)NC1c1ccc(OC(C)C)cc1` (stereo unspecified), over 1000 ×10⁻⁶ cm/s.
As for `COc1ccc(CN2CCNc3cc(Nc4ccccc4)ncc3C2)cn1`, the figure is 2.38 ×10⁻⁶ cm/s; as for `Cc1cc(NS(=O)(=O)c2ccc3c(c2)CCC(=O)N3)ccc1F`, 463 ×10⁻⁶ cm/s.
The compound `COc1ccc(OC)c(-n2c3c(cc(-c4nc(-c5ccc(Cl)cc5)cs4)c2=O)C(=O)CC(C)(C)C3)c1` gave an apparent permeability coefficient (Papp) of 331 ×10⁻⁶ cm/s.
For `CCc1ccc(C2C(C(=O)Nc3ccccc3OC)=C(C)Nc3c(C(=O)Nc4ccc(C)cc4)cnn32)cc1` (stereo unspecified) the value was 288 ×10⁻⁶ cm/s.
In the case of `Clc1ccc(C2(c3ccc(-c4cn[nH]c4)cc3)CCNCC2)cc1`, the apparent permeability coefficient (Papp) turned out to be 3.6 ×10⁻⁶ cm/s.
As for `COc1ccc2[nH]cc(CCNC(=O)c3cnn(-c4ccc(C)cc4)c3C3CCN(C(=O)OC(C)(C)C)CC3)c2c1`, the figure is 689 ×10⁻⁶ cm/s; as for `COc1ccccc1CNC(=O)CCCn1nc(C)c2c(C)n(-c3ccc(C)cc3)nc2c1=O`, 237 ×10⁻⁶ cm/s.
